Assay results reported in article PMC7932537, “Quantitative profiling of protease specificity” (PLoS Computational Biology, 2021).

Key:
MMP-2 [1] = biological target: T1, MMP-2 (Homo sapiens, UniProt P08253); experiment: K(obs) of individual phage substrates (set of 1369); type: biochemical; conditions: MMP2
T1 sequence (P08253 110-660): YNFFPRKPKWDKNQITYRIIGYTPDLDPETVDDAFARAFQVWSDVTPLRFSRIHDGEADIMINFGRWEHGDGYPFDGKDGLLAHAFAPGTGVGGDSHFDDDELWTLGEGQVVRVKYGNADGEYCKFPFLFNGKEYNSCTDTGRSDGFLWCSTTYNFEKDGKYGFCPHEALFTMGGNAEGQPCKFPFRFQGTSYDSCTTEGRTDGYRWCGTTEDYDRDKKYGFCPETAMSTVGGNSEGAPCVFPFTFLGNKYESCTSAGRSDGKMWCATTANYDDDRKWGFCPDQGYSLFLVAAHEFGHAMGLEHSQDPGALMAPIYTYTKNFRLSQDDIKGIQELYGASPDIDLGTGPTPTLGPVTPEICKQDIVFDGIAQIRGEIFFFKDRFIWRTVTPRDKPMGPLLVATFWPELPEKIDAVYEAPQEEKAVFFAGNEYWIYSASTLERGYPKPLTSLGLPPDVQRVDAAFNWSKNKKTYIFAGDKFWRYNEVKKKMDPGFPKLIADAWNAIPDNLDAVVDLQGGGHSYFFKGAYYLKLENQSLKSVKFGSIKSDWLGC

MMP-9 = MMP-9 (Homo sapiens, UniProt P14780); experiment: as above; type: biochemical; conditions: MMP9
MMP-9, sequence (P14780 94-707): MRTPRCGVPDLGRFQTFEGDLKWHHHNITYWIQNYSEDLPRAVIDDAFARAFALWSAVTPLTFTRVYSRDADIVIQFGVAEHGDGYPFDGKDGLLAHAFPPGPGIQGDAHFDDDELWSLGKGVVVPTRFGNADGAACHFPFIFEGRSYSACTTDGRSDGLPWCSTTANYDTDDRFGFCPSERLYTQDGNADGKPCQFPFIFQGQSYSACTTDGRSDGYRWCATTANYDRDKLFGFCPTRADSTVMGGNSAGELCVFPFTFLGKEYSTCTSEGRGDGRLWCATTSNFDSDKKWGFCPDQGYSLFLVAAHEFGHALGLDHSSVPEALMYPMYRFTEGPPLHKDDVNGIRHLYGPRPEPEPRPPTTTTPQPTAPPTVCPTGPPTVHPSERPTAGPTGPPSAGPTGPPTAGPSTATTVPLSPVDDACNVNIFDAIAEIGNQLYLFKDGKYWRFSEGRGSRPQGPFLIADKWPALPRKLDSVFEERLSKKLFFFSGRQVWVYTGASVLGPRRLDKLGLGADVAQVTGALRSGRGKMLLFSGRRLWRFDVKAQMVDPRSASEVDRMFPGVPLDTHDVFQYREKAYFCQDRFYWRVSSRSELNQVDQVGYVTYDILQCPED

MMP-2 [2] = experiment: Substrate phage display with NGS: relative probability (RP) of P3-P1' tetramer clusters; type: biochemical, human; conditions: MMP2;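 note: ratio of tetramer probability after protease selection to that in naive phage library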
[3] = individual phage substrates, set of 1369 peptides, cleavage position marked by hyphen in sequence
[4] = individual phage substrates, set of 1369 peptides, hyphen in sequence marks cleavage position
[5] = RP of the P3-P1' tetramer contained in the substrate (substrate phage display with NGS)
[6] = individual phage substrate of the set of 1369 peptides, cleavage position marked by '-'
[7] = individual phage substrate of the set of 1369 peptides, dash in the sequence marks the cleavage position
[8] = RP of the P3-P1' tetramer contained in the substrate

Substance	Kobs (MMP-2 [1]; [3])	Kobs (MMP-9; [4])	relative probability (RP) (MMP-2 [2]; [5])	Kobs (MMP-2 [1]; [6])	Kobs (MMP-9; [7])	relative probability (RP) (MMP-2 [2]; [8])
SGGSG-LRVKR	551.253 M⁻¹ s⁻¹	231.616 M⁻¹ s⁻¹	1.9698			
SGPTN-LRTTA				12792.1 M⁻¹ s⁻¹	12792.1 M⁻¹ s⁻¹	31.0288
QHWGG-LTASG	12792.1 M⁻¹ s⁻¹	386.839 M⁻¹ s⁻¹	21.3794			
NTPNW-LTASG	10866.7 M⁻¹ s⁻¹	6131.32 M⁻¹ s⁻¹	26.5667			
ARPEF-LTASG				8941.32 M⁻¹ s⁻¹	7015.91 M⁻¹ s⁻¹	12.0159
RAPAS-LTASG				12792.1 M⁻¹ s⁻¹	12792.1 M⁻¹ s⁻¹	36.4285
SGLRH-LSNTA	386.839 M⁻¹ s⁻¹	762.325 M⁻¹ s⁻¹	22.7972			
DSLAW-LTASG	10866.7 M⁻¹ s⁻¹	1561.44 M⁻¹ s⁻¹	22.0358			
TMGMN-MTASG	142.481 M⁻¹ s⁻¹	517.582 M⁻¹ s⁻¹	0			
SGPQS-WRTTA	7815.03 M⁻¹ s⁻¹	3165.09 M⁻¹ s⁻¹	25.7009			
VFVSN-LTASG	12792.1 M⁻¹ s⁻¹	9740.44 M⁻¹ s⁻¹	33.8801			
SGPFH-LSRTA	84.609 M⁻¹ s⁻¹	2280.5 M⁻¹ s⁻¹	23.4724			
GRASH-LMTAS	4470.66 M⁻¹ s⁻¹	726.013 M⁻¹ s⁻¹	19.8208			
RRPTN-LTASG				12792.1 M⁻¹ s⁻¹	12792.1 M⁻¹ s⁻¹	31.0288
RNPEW-MTASG	2996.69 M⁻¹ s⁻¹	4763.33 M⁻¹ s⁻¹	12.3271			
SGAQM-LRGTA	4082.43 M⁻¹ s⁻¹	5461.43 M⁻¹ s⁻¹	8.608			
GVARP-LSTAS				5090.5 M⁻¹ s⁻¹	1610.61 M⁻¹ s⁻¹	27.8706
PHTAS-LTASG				12792.1 M⁻¹ s⁻¹	0 M⁻¹ s⁻¹	17.8872
RTMLH-MTASG	619.843 M⁻¹ s⁻¹	261.974 M⁻¹ s⁻¹	4.713			
GIFWH-LRTAS	0 M⁻¹ s⁻¹	0 M⁻¹ s⁻¹	0			
PQVWY-LTASG	4205.91 M⁻¹ s⁻¹	5889.62 M⁻¹ s⁻¹	3.667			
APYNH-LTASG				1327.88 M⁻¹ s⁻¹	990.764 M⁻¹ s⁻¹	3.693
ACIWS-LTASG				27.918 M⁻¹ s⁻¹	355.093 M⁻¹ s⁻¹	5.404
DNTFH-LTASG				142.481 M⁻¹ s⁻¹	0 M⁻¹ s⁻¹	0.1298

Substance	Kobs (MMP-2 [1]; [3])	Kobs (MMP-9; [4])	relative probability (RP) (MMP-2 [2]; [5])	Kobs (MMP-2 [1]; [6])	Kobs (MMP-9; [7])	relative probability (RP) (MMP-2 [2]; [8])
GSHSN-LMTAS	12792.1 M⁻¹ s⁻¹	56.119 M⁻¹ s⁻¹	27.7336			
SGPLG-LSGTA				12792.1 M⁻¹ s⁻¹	12792.1 M⁻¹ s⁻¹	35.3536
LTPRY-WTASG	5269.78 M⁻¹ s⁻¹	5461.43 M⁻¹ s⁻¹	20.9965			
GWWMN-LTASG	1071.29 M⁻¹ s⁻¹	836.403 M⁻¹ s⁻¹	0			
RFALN-LTASG	7015.91 M⁻¹ s⁻¹	9740.44 M⁻¹ s⁻¹	17.2813			
QVSWA-WTASG	0 M⁻¹ s⁻¹	231.616 M⁻¹ s⁻¹	0.05632			
ERSLA-WTASG				2157.02 M⁻¹ s⁻¹	113.394 M⁻¹ s⁻¹	18.2943
FMPRN-TASGA				2837.92 M⁻¹ s⁻¹	12792.1 M⁻¹ s⁻¹	2.5391
SGPQW-ITGTA				7815.03 M⁻¹ s⁻¹	12792.1 M⁻¹ s⁻¹	28.1021
KDYLH-LTASG				0 M⁻¹ s⁻¹	0 M⁻¹ s⁻¹	0.4077
STIRM-LTASG				2837.92 M⁻¹ s⁻¹	2157.02 M⁻¹ s⁻¹	12.7446
GAWHN-MRTAS	0 M⁻¹ s⁻¹	0 M⁻¹ s⁻¹	0			
REPLT-LTASG				12792.1 M⁻¹ s⁻¹	12792.1 M⁻¹ s⁻¹	24.2603
EHAWN-LTASG				2218.08 M⁻¹ s⁻¹	2280.5 M⁻¹ s⁻¹	14.0049
VFPMS-LTASG				12792.1 M⁻¹ s⁻¹	12792.1 M⁻¹ s⁻¹	32.4868
WQYSN-LTASG	3964.21 M⁻¹ s⁻¹	323.705 M⁻¹ s⁻¹	25.2832			
VPPRV-LTASG				799.117 M⁻¹ s⁻¹	2687.73 M⁻¹ s⁻¹	13.9079
SGPAW-MKGTA	9740.44 M⁻¹ s⁻¹	7386.83 M⁻¹ s⁻¹	34.3571			
TILRN-ITASG				7815.03 M⁻¹ s⁻¹	2837.92 M⁻¹ s⁻¹	19.0698
SGYAS-MVATA	5667.28 M⁻¹ s⁻¹	0 M⁻¹ s⁻¹	24.1553			
GSGAH-LQLST				171.876 M⁻¹ s⁻¹	292.668 M⁻¹ s⁻¹	8.464
SGSHG-LRSTA				1763.55 M⁻¹ s⁻¹	1154.21 M⁻¹ s⁻¹	0.2009
GRAAW-LQTAS	12792.1 M⁻¹ s⁻¹	1465.65 M⁻¹ s⁻¹	28.6088			
PRVEA-LTASG				4205.91 M⁻¹ s⁻¹	231.616 M⁻¹ s⁻¹	10.756

Substance	Kobs (MMP-2 [1]; [3])	Kobs (MMP-9; [4])	relative probability (RP) (MMP-2 [2]; [5])	Kobs (MMP-2 [1]; [6])	Kobs (MMP-9; [7])	relative probability (RP) (MMP-2 [2]; [8])
GRGAN-LKTAS	1816.46 M⁻¹ s⁻¹	951.362 M⁻¹ s⁻¹	13.1428			
RLYMN-ITASG	0 M⁻¹ s⁻¹	0 M⁻¹ s⁻¹	0			
GSGRN-LRLQT				551.253 M⁻¹ s⁻¹	113.394 M⁻¹ s⁻¹	8.812
SKPNF-LTASG				5889.62 M⁻¹ s⁻¹	3741.87 M⁻¹ s⁻¹	15.743
GLLLN-MTASG	1711.63 M⁻¹ s⁻¹	517.582 M⁻¹ s⁻¹	13.7728			
SNLNS-TASGA				4205.91 M⁻¹ s⁻¹	4470.66 M⁻¹ s⁻¹	0.4784
SGPKS-LVRTA				12792.1 M⁻¹ s⁻¹	12792.1 M⁻¹ s⁻¹	32.0343
SRYLP-MTASG	0 M⁻¹ s⁻¹	0 M⁻¹ s⁻¹	0.4306			
QEPRN-ITASG				12792.1 M⁻¹ s⁻¹	12792.1 M⁻¹ s⁻¹	31.9621
GQPRS-WRTAS				9740.44 M⁻¹ s⁻¹	8941.32 M⁻¹ s⁻¹	32.796
SGAMG-LFRTA				142.481 M⁻¹ s⁻¹	619.843 M⁻¹ s⁻¹	23.7576
GKPAS-LDTAS	1239.69 M⁻¹ s⁻¹	0 M⁻¹ s⁻¹	36.4285			
GYPLH-LQTAS	9740.44 M⁻¹ s⁻¹	8941.32 M⁻¹ s⁻¹	34.1843			
SGVRH-VRATA				3850.82 M⁻¹ s⁻¹	12792.1 M⁻¹ s⁻¹	9.5401
GMVFS-IYTAS				690.17 M⁻¹ s⁻¹	2097.28 M⁻¹ s⁻¹	0.2237
VRWSW-LTASG				2038.8 M⁻¹ s⁻¹	0 M⁻¹ s⁻¹	7.878
HRLLS-LTASG				6688.74 M⁻¹ s⁻¹	912.511 M⁻¹ s⁻¹	2.018
SSVWH-ITASG				323.705 M⁻¹ s⁻¹	836.403 M⁻¹ s⁻¹	1.931
SGFLH-WRSTA	0 M⁻¹ s⁻¹	0 M⁻¹ s⁻¹	0.05793			
SGPRW-MKGTA	4205.91 M⁻¹ s⁻¹	7815.03 M⁻¹ s⁻¹	32.3694			
TVLNS-LTASG	3438.54 M⁻¹ s⁻¹	0 M⁻¹ s⁻¹	18.3633			
ESFAA-LTASG				12792.1 M⁻¹ s⁻¹	56.119 M⁻¹ s⁻¹	18.8584
